As usually defined, the IC50 is the midpoint of a concentration-inhibition curve.

Here are results for nine compounds from ChEMBL document CHEMBL4837236, “Polyketides with Anti-neuroinflammatory Activity from Theissenia cinerea” (J Nat Prod, 2021).

For data set [1], the system named is BV-2. Nature of the data set: Antiinflammatory activity in mouse BV2 cells assessed as inhibition of LPS-induced NO-production by measuring NO level at 10 uM preincubated for 1 hr followed by LPS stimulation and measured after 24 hrs by microplate reader based colorimetric assay (reference value: 26.6 +/- 8.1 uM). Type of data set: functional.
Data set [2] has as its system BV-2. The experiment in a line: Cytotoxicity against mouse BV2 cells assessed as cell viability at 10 uM after 24 hrs by MTT assay. Type of data set: cell-based. The note with it: bv-2, 24 h. (In general: Formazan colour is commonly taken as a measure of viable cells.)
Data set [3] concerns BV-2. The experiment in a line: Antiinflammatory activity in mouse BV2 cells assessed as inhibition of LPS-induced NO-production preincubated for 1 hr followed by LPS stimulation and measured after 24 hrs by microplate reader based colorimetric assay. Type of data set: functional, cell-based. The note with it: for inhibition: time 25.0 hrs.

The structures appear in SMILES notation.

With `C/C=C/[C@@H]1O[C@@H]2[C@@H](C)OC(=O)[C@]2(O)C[C@H]1O`, the NO level in the data set with BV-2 [1] was 25.5 µM. Also, in the data set with BV-2 [2], the Activity result is reported as “Non-Toxic”.
With `C/C=C/[C@H]1O[C@@H]2C(=C[C@H]1O)C(=O)O[C@@H]2C`, in the data set on BV-2 [3], the IC50 was 4.5 µM. Besides, the NO level with BV-2 [1] is 2.2 µM. Further, the Activity result in the data set on BV-2 [2] is “Non-Toxic”.
Taken in the same sequence, the figures for `C/C=C/[C@@H]1O[C@H]2C(=C[C@H]1O)C(=O)O[C@@H]2C` were 1.1 µM, 1.9 µM and “Non-Toxic”.
Take `C[C@@H]1OC(=O)c2c(O)ccc(O)c2[C@@H]1O`: the NO level in the data set on BV-2 [1] is 28.9 µM. For the same compound, the Activity entry in the data set with BV-2 [2] was “Non-Toxic”.
With `COc1cc(O)c2c(c1)[C@H](O)[C@@]1(CO)O[C@@]1(CO)C2=O`, in the data set on BV-2 [3], the IC50 stood at 5 µM and the inhibition result was “Dose-Dependent Effect”. Further, the NO level in the data set with BV-2 [1] was 10.5 µM. In the data set with BV-2 [2], the Activity entry is recorded as “Non-Toxic”.
Regarding `CCC/C=C/C1=C(CO)[C@@H](O)[C@@H]2O[C@@H]2[C@@H]1O`, the NO level in the data set with BV-2 [1] amounted to 24.3 µM. In addition, the Activity result in the data set on BV-2 [2] is reported as “Non-Toxic”.
Consider `CC(O)C/C=C/[C@H](O)[C@H](O)/C=C/c1cccc(O)c1CO` (some centres undefined), for which the NO level with BV-2 [1] came out at 26.6 µM. Further, in the data set on BV-2 [2], the Activity result was “Non-Toxic”.
Take `COc1cc(O)c2c(c1)[C@H](O)[C@]13CO[C@H](O)[C@]1(O3)C2=O`: in the data set with BV-2 [3], the IC50 worked out at 3.2 µM and the inhibition result was “Dose-Dependent Effect”. Moreover, the NO level in the data set with BV-2 [1] came out at 2.6 µM. Further, the Activity result in the data set on BV-2 [2] is listed as “Non-Toxic”.
Turning to `COc1cc(/C=C/C(=O)CC(=O)/C=C/c2ccc(O)c(OC)c2)ccc1O` [CURCUMIN], the IC50 in the data set on BV-2 [3] came to 3 µM. The NO level in the data set on BV-2 [1] turned out to be 5.5 µM.
